Test results reported in the supplement of paper PMC10307832.

How the values were obtained:
Assay in all cases: relative viability (nuclei count vs DMSO), 5 days (fraction); higher = more cells survive
Serdemetan + AZD7762 = compound: c1ccc2c(CCNc3ccc(Nc4ccncc4)cc3)c[nH]c2c1 [Serdemetan] + NC(=O)Nc1cc(-c2cccc(F)c2)sc1C(=O)N[C@H]1CCCNC1 [AZD7762] (partner 0.2 µM)
Procedure, shortened: (§1)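 Relative viability equals treated-well nuclei counts divided by vehicle-well nuclei counts. Counts came from 4× images of lung cancer cell lines grown in 1536-well plates for 5 days after pin-tool dosing on the day after seeding. Dosing used one drug alone or a fixed anchor-drug dose plus five library-drug doses (not always all listed) in √10 steps, and values are medians of duplicate plates.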

Serdemetan + OSI-027 = compound: c1ccc2c(CCNc3ccc(Nc4ccncc4)cc3)c[nH]c2c1 [Serdemetan] + COc1cccc2cc(-c3nc([C@H]4CC[C@H](C(=O)O)CC4)n4ncnc(N)c34)[nH]c12 [OSI-027] (partner 0.5 µM)
Procedure, shortened: as §1

Selisistat + Foretinib = compound: C1CC(C2=C(C1)C3=C(N2)C=CC(=C3)Cl)C(=O)N [Selisistat] + COc1cc2c(Oc3ccc(NC(=O)C4(C(=O)Nc5ccc(F)cc5)CC4)cc3F)ccnc2cc1OCCCN1CCOCC1 [Foretinib] (partner 0.25 µM)
Procedure, shortened: as §1

Selisistat + Lapatinib = compound: C1CC(C2=C(C1)C3=C(N2)C=CC(=C3)Cl)C(=O)N [Selisistat] + CS(=O)(=O)CCNCc1ccc(-c2ccc3ncnc(Nc4ccc(OCc5cccc(F)c5)c(Cl)c4)c3c2)o1 [Lapatinib] (partner 2 µM)
Procedure, shortened: as §1

Cell Line | relative viability (Serdemetan + AZD7762; first compound 0.04 µM) | relative viability (Serdemetan + AZD7762; first compound 0.1265 µM) | relative viability (Serdemetan + AZD7762; first compound 0.4 µM) | relative viability (Serdemetan + AZD7762; first compound 1.265 µM) | relative viability (Serdemetan + AZD7762; first compound 4 µM) | relative viability (Serdemetan + OSI-027; first compound 0.04 µM) | relative viability (Serdemetan + OSI-027; first compound 0.1265 µM) | relative viability (Serdemetan + OSI-027; first compound 0.4 µM) | relative viability (Serdemetan + OSI-027; first compound 1.265 µM) | relative viability (Serdemetan + OSI-027; first compound 4 µM) | relative viability (Selisistat + Foretinib; first compound 0.4 µM) | relative viability (Selisistat + Foretinib; first compound 1.265 µM) | relative viability (Selisistat + Foretinib; first compound 4 µM) | relative viability (Selisistat + Foretinib; first compound 12.65 µM) | relative viability (Selisistat + Foretinib; first compound 40 µM) | relative viability (Selisistat + Lapatinib; first compound 0.4 µM) | relative viability (Selisistat + Lapatinib; first compound 1.265 µM) | relative viability (Selisistat + Lapatinib; first compound 4 µM) | relative viability (Selisistat + Lapatinib; first compound 12.65 µM) | relative viability (Selisistat + Lapatinib; first compound 40 µM)
NCI-H441 | 1.28 | 1.19 | 1.05 | 0.858 | 0.548 | 0.581 | 0.802 | 0.622 | 0.347 | 0.441 | 0.936 | 1.12 | 0.961 | 0.951 | 0.817 | – | – | – | – | –
NCI-H520 | – | – | – | – | – | 0.283 | 0.273 | 0.297 | – | 0.293 | 0.691 | 0.699 | 0.715 | 0.801 | 0.746 | 0.811 | 0.898 | 0.814 | 0.751 | 0.766
NCI-H522 | 0.731 | 0.699 | 0.931 | 1.04 | 0.801 | 0.814 | 0.704 | 0.887 | – | 0.712 | – | – | – | – | – | – | – | – | – | –
NCI-H661 | – | – | – | – | – | 0.689 | 0.706 | 0.736 | 0.672 | 0.69 | 1.06 | 1.04 | 0.977 | 0.936 | 0.876 | 0.515 | 0.469 | 0.502 | 0.396 | 0.535
NCI-H1299 | – | – | – | – | – | – | – | – | – | – | 1.16 | 1.13 | 1.15 | 1.07 | 1.11 | 0.967 | 0.947 | 0.961 | 0.991 | 0.964
NCI-H1563 | – | – | – | – | – | 0.747 | 0.74 | 0.732 | 0.62 | 0.614 | 1.05 | 0.91 | 0.941 | 0.9 | 0.809 | 1.03 | 0.95 | 0.881 | 0.825 | 0.921
NCI-H1623 | – | – | – | – | – | 0.457 | 0.395 | 0.359 | 0.389 | 0.395 | 0.963 | 0.782 | 0.614 | 0.918 | 0.846 | – | – | – | – | –
NCI-H1648 | – | 0.809 | 0.762 | 0.594 | 0.482 | – | 0.255 | 0.335 | 0.195 | 0.256 | – | – | – | – | – | – | – | – | – | –
NCI-H1650 | – | – | – | – | – | 0.664 | 0.701 | 0.412 | 0.532 | 0.473 | 1.11 | 1.03 | 1.02 | 0.999 | 1.18 | 0.918 | 0.74 | 0.579 | 0.685 | 0.693
NCI-H1703 | 0.176 | 0.121 | 0.121 | – | 0.108 | – | – | – | – | – | 0.338 | 0.336 | 0.365 | 0.356 | 0.313 | 1.1 | 1.06 | 1.12 | 1.05 | 1.05
NCI-H1792 | 0.674 | 0.59 | 0.63 | 0.326 | 0.324 | 0.752 | 0.718 | 0.677 | 0.42 | 0.426 | – | – | – | – | – | 0.917 | 0.89 | – | 0.829 | 0.926
NCI-H2009 | – | – | – | – | – | 0.653 | 0.678 | 0.628 | 0.55 | 0.466 | 1.33 | 1.17 | – | 1.22 | 1.17 | 0.903 | 0.961 | 0.454 | 0.826 | 0.987
NCI-H2023 | – | – | – | – | – | 0.395 | 0.383 | 0.324 | 0.255 | 0.191 | 0.879 | 0.81 | 0.966 | 0.873 | 0.904 | 0.703 | 0.812 | 0.537 | 0.859 | 0.758
NCI-H2228 | – | – | – | – | – | 0.526 | 0.523 | 0.464 | 0.17 | 0.221 | 0.979 | 0.931 | 0.685 | 0.843 | 0.916 | 0.99 | 1.2 | 1.31 | 0.868 | 1.07
NCI-H2342 | 0.516 | 0.467 | 0.545 | 0.39 | 0.457 | 0.66 | 0.648 | 0.731 | 0.666 | 0.512 | 0.997 | 0.986 | 0.896 | 1.09 | 1.07 | – | – | – | – | –
SK-LU-1 | – | – | – | – | – | 0.424 | 0.405 | 0.405 | – | 0.246 | 0.883 | 0.811 | 0.865 | 0.813 | 0.825 | 0.924 | 0.825 | 0.936 | 0.958 | 0.867
SK-MES-1 | – | – | – | – | – | 0.572 | 0.578 | 0.621 | 0.541 | 0.447 | 0.908 | 0.762 | 0.624 | 0.879 | 0.883 | 0.479 | 0.525 | 0.411 | 0.504 | 0.426
SW 900 | 0.647 | 0.652 | 0.616 | 0.437 | 0.359 | 0.757 | 0.602 | 0.632 | 0.381 | 0.37 | 0.921 | 0.778 | 0.798 | 0.955 | 0.977 | – | – | – | – | –
SW 1573 | – | – | – | – | – | 0.749 | 0.705 | 0.716 | 0.439 | 0.289 | 0.954 | 0.806 | 0.821 | 0.931 | 0.929 | 1.14 | 1.02 | 1.02 | 1.04 | 1.12
